# Experimental data as given in US11986532B2 (Arvinas Operations, Inc., priority 2021, dated 2024).
# Where two headings read alike, the source gives them in different places.
# Target: T1, BCL6 (Homo sapiens, UniProt P41182)
# T1 construct: endogenous in cells; host or cells: T47D breast cancer epithelial cells
# Test: Immunofluorescence protocol for high content imaging of BCL6 (degradation) in T47D cells, 3 days compound treatment
# Assay type: cell-based
# Conditions: for DC50: read-out: Mean DC50 (nM)* category; for Dmax: read-out: Mean Dmax (%)** category
# Outline: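 Read-out: high-content imaging of anti-BCL6 immunofluorescence (Alexa-488 secondary) with CellMask and Hoechst counterstains, 10×, 4 fields/well. Cells had 3 days of compound exposure at 37° C, 5% CO2, 11-point 3-fold series from a final top of 0.1 or 1 μM.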
# [1] = T47D cells, 3 days compound treatment
Compound,DC50 [1] [nM],Dmax [1] [%],Dmax (T47D) [%],DC50 [nM]
"CC[C@@H]1CN([C@H]2C[C@H](OC3CCN(c4ncc(Cl)c(Nc5ccc6c(c5)cc(OCC(=O)NC)c(=O)n6C(C)C)n4)CC3)C2)CCN1c1ccc2c(c1Cl)CN(C1CCC(=O)NC1=O)C2=O (stereo partly drawn) [Compound 205, 2-({6-[(5-chloro-2-{4-[(1r,3r)-3-[(3R)-4-[4-chloro-2-(2,6-dioxopiperidin-3-yl)-1-oxo-2,3-dihydro-1H-isoindol-5-yl]-3-ethylpiperazin-1-yl]cyclobutoxy]piperidin-1-yl}pyrimidin-4-yl)amino]-2-oxo-1-(propan-2-yl)-1,2-dihydroquinolin-3-yl}oxy)-N-methylacetamide]",< 10,≥ 70,,
"CNC(=O)COc1cc2cc(Nc3nc(N4CCC(O[C@H]5C[C@H](N6CCN(c7ccc8c(c7)C(=O)N(C7CCC(=O)NC7=O)C8=O)[C@H](C)C6)C5)CC4)ncc3Cl)ccc2n(C(C)C)c1=O (stereo partly drawn) [Compound 387, 2-({6-[(5-chloro-2-{4-[(1r,3r)-3-[(3R)-4-[2-(2,6-dioxopiperidin-3-yl)-1,3-dioxo-2,3-dihydro-1H-isoindol-5-yl]-3-methylpiperazin-1-yl]cyclobutoxy]piperidin-1-yl}pyrimidin-4-yl)amino]-2-oxo-1-(propan-2-yl)-1,2-dihydroquinolin-3-yl}oxy)-N-methylacetamide]",,,50 to 70,< 10
"CNC(=O)COc1cc2cc(Nc3nc(N4CCC(OC5CCC6(CC5)CN(c5ccc7c(c5C)CN(C5CCC(=O)NC5=O)C7=O)C6)CC4)ncc3Cl)ccc2n(C(C)C)c1=O (centres unmarked) [Compound 402, 2-{[6-({5-chloro-2-[4-({2-[2-(2,6-dioxopiperidin-3-yl)-4-methyl-1-oxo-2,3-dihydro-1H-isoindol-5-yl]-2-azaspiro[3.5]nonan-7-yl}oxy)piperidin-1-yl]pyrimidin-4-yl}amino)-2-oxo-1-(propan-2-yl)-1,2-dihydroquinolin-3-yl]oxy}-N-methylacetamide]",,,≥ 70,< 10
"CNC(=O)COc1cc2cc(Nc3nc(N4CCN(CC5CCN(c6ccc7c(c6F)CN(C6CCC(=O)NC6=O)C7=O)CC5)CC4)ncc3Cl)ccc2n(C(C)C)c1=O (centres unmarked) [Compound 25, 2-{[6-({5-chloro-2-[4-({1-[2-(2,6-dioxopiperidin-3-yl)-4-fluoro-1-oxo-2,3-dihydro-1H-isoindol-5-yl]piperidin-4-yl}methyl)piperazin-1-yl]pyrimidin-4-yl}amino)-2-oxo-1-(propan-2-yl)-1,2-dihydroquinolin-3-yl]oxy}-N-methylacetamide]",< 10,< 50,,
"CNC(=O)COc1cc2cc(Nc3nc(N4CCN(CC5CCC6(CC5)CN(c5c(OC)ccc7c5C(=O)N(C5CCC(=O)NC5=O)C7=O)C6)CC4)ncc3Cl)ccc2n(C(C)C)c1=O (centres unmarked) [Compound 9, 2-{[6-({5-chloro-2-[4-({2-[2-(2,6-dioxopiperidin-3-yl)-5-methoxy-1,3-dioxo-2,3-dihydro-1H-isoindol-4-yl]-2-azaspiro[3.5]nonan-7-yl}methyl)piperazin-1-yl]pyrimidin-4-yl}amino)-2-oxo-1-(propan-2-yl)-1,2-dihydroquinolin-3-yl]oxy}-N-methylacetamide]",< 10,< 50,,
"CNC(=O)COc1cc2cc(Nc3nc(N4CCC(O[C@H]5C[C@H](N6CCC(O)(c7ccc8c(c7)C(=O)N(C7CCC(=O)NC7=O)C8=O)CC6)C5)CC4)ncc3Cl)ccc2n(C(C)C)c1=O (some centres unmarked) [Compound 275, 2-({6-[(5-chloro-2-{4-[(1r,3r)-3-{4-[2-(2,6-dioxopiperidin-3-yl)-1,3-dioxoisoindol-5-yl]-4-hydroxypiperidin-1-yl}cyclobutoxy]piperidin-1-yl}pyrimidin-4-yl)amino]-1-isopropyl-2-oxoquinolin-3-yl}oxy)-N-methylacetamide]",,,≥ 70,< 10
"CNC(=O)COc1cc2cc(Nc3nc(N4CCC(CN5CCC6(CC5)CN(c5ccc7c(c5)C(=O)N(C5CCC(=O)NC5=O)C7=O)C6)CC4)ncc3Cl)ccc2n(C2CC2)c1=O (centres unmarked) [Compound 50, 2-{[6-({5-chloro-2-[4-({2-[2-(2,6-dioxopiperidin-3-yl)-1,3-dioxo-2,3-dihydro-1H-isoindol-5-yl]-2,7-diazaspiro[3.5]nonan-7-yl}methyl)piperidin-1-yl]pyrimidin-4-yl}amino)-1-cyclopropyl-2-oxo-1,2-dihydroquinolin-3-yl]oxy}-N-methylacetamide]",< 10,50 to 70,,
"CNC(=O)COc1cc2c(F)c(Nc3nc(N4CCC(O[C@H]5C[C@H](N6CCC(c7ccc8c(c7)C(=O)N(C7CCC(=O)NC7=O)C8=O)CC6)C5)CC4)ncc3Cl)ccc2n(C(C)C)c1=O (some centres unmarked) [Compound 172, 2-({6-[(5-chloro-2-{4-[(1r,3r)-3-{4-[2-(2,6-dioxopiperidin-3-yl)-1,3-dioxo-2,3-dihydro-1H-isoindol-5-yl]piperidin-1-yl}cyclobutoxy]piperidin-1-yl}pyrimidin-4-yl)amino]-5-fluoro-2-oxo-1-(propan-2-yl)-1,2-dihydroquinolin-3-yl}oxy)-N-methylacetamide]",< 10,≥ 70,,
"CNC(=O)COc1cc2cc(Nc3nc(N4CCC(CN5CCC6(CC(=O)N(c7ccc8c(c7)CN(C7CCC(=O)NC7=O)C8=O)C6)C5)CC4)ncc3Cl)ccc2n(C(C)C)c1=O (centres unmarked) [Compound 39, 2-{[6-({5-chloro-2-[4-({7-[2-(2,6-dioxopiperidin-3-yl)-1-oxo-2,3-dihydro-1H-isoindol-5-yl]-8-oxo-2,7-diazaspiro[4.4]nonan-2-yl}methyl)piperidin-1-yl]pyrimidin-4-yl}amino)-2-oxo-1-(propan-2-yl)-1,2-dihydroquinolin-3-yl]oxy}-N-methylacetamide]",< 10,50 to 70,,
"CNC(=O)COc1cc2cc(Nc3nc(N4CCC(O[C@H]5C[C@H](N6CCN(c7ccc8c(c7)C(=O)N(C7CCC(=O)NC7=O)C8=O)C(C)(C)C6)C5)CC4)ncc3Cl)ccc2n(C(C)C)c1=O (some centres unmarked) [Compound 367, 2-({6-[(5-chloro-2-{4-[(1r,3r)-3-{4-[2-(2,6-dioxopiperidin-3-yl)-1,3-dioxo-2,3-dihydro-1H-isoindol-5-yl]-3,3-dimethylpiperazin-1-yl}cyclobutoxy]piperidin-1-yl}pyrimidin-4-yl)amino]-2-oxo-1-(propan-2-yl)-1,2-dihydroquinolin-3-yl}oxy)-N-methylacetamide]",,,≥ 70,10 to 50

# Second part, led by results:
DC50 [1] [nM],Dmax [1] [%],Compound,Dmax (T47D) [%],DC50 [nM]
< 10,< 50,"CNC(=O)COc1cc2cc(Nc3nc(N4CCN(C(C)(C)C5CCN(c6ccc7c(c6OC)CN(C6CCC(=O)NC6=O)C7=O)CC5)CC4)ncc3Cl)ccc2n(C(C)C)c1=O (centres unmarked) [Compound 78, 2-{[6-({5-chloro-2-[4-(2-{1-[2-(2,6-dioxopiperidin-3-yl)-4-methoxy-1-oxo-2,3-dihydro-1H-isoindol-5-yl]piperidin-4-yl}propan-2-yl)piperazin-1-yl]pyrimidin-4-yl}amino)-2-oxo-1-(propan-2-yl)-1,2-dihydroquinolin-3-yl]oxy}-N-methylacetamide]",,
10 to 50,< 50,"CNC(=O)COc1cc2cc(Nc3nc(N4CC5C(CN6CCN(c7cccc8c7C(=O)N(C7CCC(=O)NC7=O)C8=O)CC6)C5C4)ncc3Cl)ccc2n(C(C)C)c1=O (centres unmarked) [Compound 158, 2-{[6-({5-chloro-2-[6-({4-[2-(2,6-dioxopiperidin-3-yl)-1,3-dioxo-2,3-dihydro-1H-isoindol-4-yl]piperazin-1-yl}methyl)-3-azabicyclo [3.1.0]hexan-3-yl]pyrimidin-4-yl}amino)-2-oxo-1-(propan-2-yl)-1,2-dihydroquinolin-3-yl]oxy}-N-methylacetamide]",,
< 10,50 to 70,"CNC(=O)COc1cc2cc(Nc3nc(N4CCC(F)(CN5CCC6(CC5)CN(c5ccc7c(c5)CN(C5CCC(=O)NC5=O)C7=O)C6)CC4)ncc3Cl)ccc2n(C(C)C)c1=O (centres unmarked) [Compound 51, 2-{[6-({5-chloro-2-[4-({2-[2-(2,6-dioxopiperidin-3-yl)-1-oxo-2,3-dihydro-1H-isoindol-5-yl]-2,7-diazaspiro[3.5]nonan-7-yl}methyl)-4-fluoropiperidin-1-yl]pyrimidin-4-yl}amino)-2-oxo-1-(propan-2-yl)-1,2-dihydroquinolin-3-yl]oxy}-N-methylacetamide]",,
< 10,50 to 70,CNC(=O)COc1cc2cc(Nc3nc(N4CCC(F)(CN5CC6(CCN(c7cc8c(cc7F)C(=O)N(C7CCC(=O)NC7=O)C8)CC6)C5)CC4)ncc3Cl)ccc2n(C(C)C)c1=O (centres unmarked) [Compound 106],,
< 10,,"CNC(=O)COc1cc2cc(Nc3nc(C)ncc3Cl)ccc2n(CCOc2ccc3c(c2)C(=O)N(C2CCC(=O)NC2=O)C3=O)c1=O (centres unmarked) [Compound 147, 2-({6-[(5-chloro-2-methylpyrimidin-4-yl)amino]-1-(2-{[2-(2,6-dioxopiperidin-3-yl)-1,3-dioxo-2,3-dihydro-1H-isoindol-5-yl]oxy}ethyl)-2-oxo-1,2-dihydroquinolin-3-yl}oxy)-N-methylacetamide]",,
< 10,≥ 70,CNC(=O)COc1cc2c(F)c(Nc3nc(N4CCC(O[C@H]5C[C@H](N6CCN(c7ccc8c(c7C)C(=O)N(C7CCC(=O)NC7=O)C8=O)[C@H](C)C6)C5)CC4)ncc3Cl)ccc2n(C(C)C)c1=O (some centres unmarked) [Compound 199],,
< 10,50 to 70,CNC(=O)COc1cc2cc(Nc3nc(N4CCC(O[C@H]5C[C@H](N6CC[C@H](c7ccc8c(c7)C(=O)N(C7CCC(=O)NC7=O)C8)[C@H](F)C6)C5)CC4)ncc3Cl)ccc2n(C(C)C)c1=O (mixture of isomers) [Compound 132],,
< 10,≥ 70,CNC(=O)COc1cc2cc(Nc3nc(N4CCC(O[C@H]5C[C@H](N6CCN(c7ccc8c(c7F)CN(C7CCC(=O)NC7=O)C8=O)C[C@H]6C)C5)CC4)ncc3Cl)ccc2n(C(C)C)c1=O (some centres unmarked) [Compound 182],,
